Results taken from ChEMBL document CHEMBL4483862, “Open-source discovery of chemical leads for next-generation chemoprotective antimalarials” (2018).

Tested on: Plasmodium berghei
Assay: Luciferase/luciferin-expressing antifolate-resistant parasites were used to infect a culture of HepG2 cells that were pre-incubated with compounds. Infected hepatocytes emit light due to the luciferase reaction. Assay results are presented as the percent inhibition of light emission compared to control. […]
Type: functional
Details: sporozoite; for IC90: read-out: LUCIFERASE INFECTION ASSAY - IC90
[1] = read-out: LUCIFERASE INFECTION ASSAY - IC50

| SMILES | IC90 [µM] | IC50 [1] [µM] | also measured |
| --- | --- | --- | --- |
| O=[N+]([O-])c1ccc(Oc2ccc(F)cc2Br)c2ccncc12 | 9.13 | – | IC50 (HEPG2TOX_HILL_SLOPE 8.14, 7.27, HEPG2TOX_R_SQUARED 0.719, 0.841, PBLUC_HILL_SLOPE 4.57, PBLUC_R_SQUARED 0.39, read-out: LUCIFERASE INFECTION ASSAY - IC50): 5.65 µM |
| COc1ccc(-c2cc3c(cn2)nc(NCc2cccc(C)c2)n3C)cc1 | > 10 | – | IC50 (PBLUC_HILL_SLOPE 9.11, PBLUC_R_SQUARED 0.402, read-out: LUCIFERASE INFECTION ASSAY - IC50): 9.46 µM |
| Cc1oc2c(c1C(=O)NCC1CCCO1)C(=O)c1ccccc1C2=O (centres undefined) | 0.328 | – | IC50 (HEPG2TOX_HILL_SLOPE 84.1, HEPG2TOX_R_SQUARED 0.355, PBLUC_HILL_SLOPE 3.6, PBLUC_R_SQUARED 0.607, read-out: LUCIFERASE INFECTION ASSAY - IC50): 0.178 µM |
| CC(C)c1ccc(NC(=O)c2csc(Cc3c(Cl)cccc3Cl)n2)cc1 | 8.08 | – | IC50 (HEPG2TOX_HILL_SLOPE 1.62, HEPG2TOX_R_SQUARED 0.849, PBLUC_HILL_SLOPE 1.9, PBLUC_R_SQUARED 0.639, read-out: LUCIFERASE INFECTION ASSAY - IC50): 2.55 µM |
| Cc1ccc(C(C)C)cc1OS(=O)(=O)c1ccc(S(=O)(=O)N(C)C)cc1[N+](=O)[O-] | > 10 | > 10 | – |
| COc1ccc(C2CC(CCc3c[nH]c4ccccc34)=NN2c2ccccc2)cc1 (centres undefined) | 3.8 | 3.35 | – |
| CCCOc1ccccc1NC(=O)c1cnc2c(c1)c(=O)[nH]c(=O)n2C | > 10 | > 10 | – |
| Cc1nc(NCCSc2nccn2C)c2c(-c3ccccc3)csc2n1 | > 10 | > 10 | – |
| CCOc1ccc(-c2nc(NC(=O)c3ccc(OC)c(S(=O)(=O)N(C)OC)c3)sc2C)cc1 | > 10 | > 10 | – |
| Cc1noc(C)c1COc1ccc(C(=O)OCC(=O)NCCC2=CCCCC2)cc1 | 8.4 | – | IC50 (HEPG2TOX_HILL_SLOPE 9.34, HEPG2TOX_R_SQUARED 0.702, PBLUC_HILL_SLOPE 3.46, PBLUC_R_SQUARED 0.677, read-out: LUCIFERASE INFECTION ASSAY - IC50): 4.45 µM |
| N#Cc1cc(NS(=O)(=O)c2c[nH]c(C(=O)N3CCCC3)c2)ccc1Cl | > 10 | – | IC50 (PBLUC_HILL_SLOPE 1.14, PBLUC_R_SQUARED 0.85, read-out: LUCIFERASE INFECTION ASSAY - IC50): 5.33 µM |
| N#Cc1cc(C(=O)c2ccc([N+](=O)[O-])cc2)c2nc3ccccc3n2c1N | > 10 | – | IC50 (HEPG2TOX_HILL_SLOPE 7.9, HEPG2TOX_R_SQUARED 0.276, PBLUC_HILL_SLOPE 1.76, PBLUC_R_SQUARED 0.097, read-out: LUCIFERASE INFECTION ASSAY - IC50): 9.24 µM |
| CCOc1ccc(-c2nc(CSc3nc(C)nc4sc5c(c34)CCCC5)cs2)cc1OC | > 10 | – | IC50 (FFLUC_HILL_SLOPE 22.7, FFLUC_R_SQUARED 0.174, read-out: LUCIFERASE INFECTION ASSAY - IC50): > 10 µM |
| CN(C)c1nc2cc(C(=O)Nc3ccccc3OC(F)F)sc2n1-c1ccccc1 | 2.47 | – | IC50 (HEPG2TOX_HILL_SLOPE 0.955, HEPG2TOX_R_SQUARED 0.898, PBLUC_HILL_SLOPE 1.96, PBLUC_R_SQUARED 0.521, read-out: LUCIFERASE INFECTION ASSAY - IC50): 0.803 µM |
| Cc1nc(SCC(=O)N2c3ccccc3Sc3ccccc32)n(CC(C)C)c1C | > 10 | > 10 | – |
| Cn1cc(/C=C/C(=O)Nc2ncc(Cc3ccccc3)s2)cn1 | 2.15 | – | IC50 (HEPG2TOX_HILL_SLOPE 0.97, HEPG2TOX_R_SQUARED 0.894, PBLUC_HILL_SLOPE 1.67, PBLUC_R_SQUARED 0.671, read-out: LUCIFERASE INFECTION ASSAY - IC50): 0.578 µM |

| SMILES | IC90 [µM] | IC50 [1] [µM] | also measured |
| --- | --- | --- | --- |
| CC(C)Cn1c(SC2CCOC2=O)nc2cc(Cl)ccc2c1=O (centres undefined) | > 10 | > 10 | – |
| CC(C)(C)c1cc(C(=O)Nc2cc(-c3cccs3)nn2-c2ccc(I)cc2)n(Cc2ccccc2)n1 | > 5.43 | – | IC50 (PBLUC_HILL_SLOPE 1.99, PBLUC_R_SQUARED 0.0392, read-out: LUCIFERASE INFECTION ASSAY - IC50): 4.11 µM |
| CC(=O)c1cccc(NC(=O)Nc2ccc3nc(Cc4ccccc4)nn3c2)c1 | 4.13 | – | IC50 (HEPG2TOX_HILL_SLOPE 12.7, HEPG2TOX_R_SQUARED 0.848, PBLUC_HILL_SLOPE 19.5, PBLUC_R_SQUARED 0.366, read-out: LUCIFERASE INFECTION ASSAY - IC50): 3.69 µM |
| CC(=O)c1ccc(NC(=O)c2nn(-c3ccccc3)c3c2C2CCC3(C)C2(C)C)cc1 (centres undefined) | > 10 | – | IC50 (FFLUC_HILL_SLOPE 16.9, FFLUC_R_SQUARED 0.354, read-out: LUCIFERASE INFECTION ASSAY - IC50): > 10 µM |
| FC(F)(F)c1cccc(NC(=S)Nc2cccnc2N2CCC(C(F)(F)F)CC2)c1 | > 7.36 | > 7.36 | – |
| CN(C)c1ccc(-c2cc3cnc(Nc4cccc(Oc5ccccc5)c4)cc3n2C)cc1 | 6.91 | – | IC50 (FFLUC_HILL_SLOPE 1.74, FFLUC_R_SQUARED 0.698, HEPG2TOX_HILL_SLOPE 44.7, HEPG2TOX_R_SQUARED 0.888, PBLUC_HILL_SLOPE 2.41, PBLUC_R_SQUARED 0.586, read-out: LUCIFERASE INFECTION ASSAY - IC50): 2.77 µM |
| N#C/C(=C\N1CCN(Cc2ccccc2)CC1)S(=O)(=O)c1ccccn1 | > 8.96 | – | IC50 (FFLUC_HILL_SLOPE 0.433, FFLUC_R_SQUARED 0.0165, read-out: LUCIFERASE INFECTION ASSAY - IC50): > 8.96 µM |
| CN1N=C2c3ccccc3CCCC2C1c1ccc(C(C)(C)C)cc1 (centres undefined) | 3.51 | – | IC50 (PBLUC_HILL_SLOPE 38, PBLUC_R_SQUARED 0.372, read-out: LUCIFERASE INFECTION ASSAY - IC50): 3.31 µM |
| Cc1ccc2oc(-c3ccc(C(C)(C)C)cc3)nc2c1 | 5.53 | – | IC50 (FFLUC_HILL_SLOPE 3.61, FFLUC_R_SQUARED 0.123, HEPG2TOX_HILL_SLOPE 7.09, HEPG2TOX_R_SQUARED 0.0328, PBLUC_HILL_SLOPE 0.728, PBLUC_R_SQUARED 0.843, read-out: LUCIFERASE INFECTION ASSAY - IC50): 0.271 µM |
| COc1ccc(NC(=O)c2ccc(-n3cnc4ccccc43)cc2)cc1Cl | > 10 | 8.58 | – |
| Cn1ccc2cc(-c3cn4c(-c5ccc6c(c5)OCO6)cnc4cn3)ccc21 | 0.402 | – | IC50 (HEPG2TOX_HILL_SLOPE 0.831, HEPG2TOX_R_SQUARED 0.884, PBLUC_HILL_SLOPE 11.3, PBLUC_R_SQUARED 0.726, read-out: LUCIFERASE INFECTION ASSAY - IC50): 0.33 µM |
| CN(C(=O)COc1cc2ccccc2cc1C(=O)NCc1ccccc1)C1CCCCC1 | > 10 | – | IC50 (FFLUC_HILL_SLOPE 11, FFLUC_R_SQUARED 0.0654, read-out: LUCIFERASE INFECTION ASSAY - IC50): > 10 µM |
| c1ccc2c(CSCCC34CC5CC(CC(C5)C3)C4)cccc2c1 | > 10 | > 10 | – |
| N#Cc1c(SCc2ccc(Cl)cc2)nc2c(c1-c1cccs1)CCCC2 | > 8.31 | – | IC50 (FFLUC_HILL_SLOPE 2.42, FFLUC_R_SQUARED 0.441, PBLUC_HILL_SLOPE 1.78, PBLUC_R_SQUARED 0.144, read-out: LUCIFERASE INFECTION ASSAY - IC50): 7.61 µM |
| Cc1c(C)n(CCCO)c2ncn3nc(-c4cccs4)nc3c12 | > 10.1 | – | IC50 (PBLUC_HILL_SLOPE 0.662, PBLUC_R_SQUARED 0.606, read-out: LUCIFERASE INFECTION ASSAY - IC50): 4.42 µM |
| O=C(NC(c1ccccc1O)C(NC(=O)c1ccccc1)c1ccccc1O)c1ccccc1 (centres undefined) | > 7.29 | > 7.29 | – |
